Source: patent EP3099166B1, “METHOD TO CONTROL ST[…] SEPTORIA TRITICI” (priority 2014, dated 2015)
Like-named read-outs stand apart in the source and are kept apart here.

Experiments:
Septoria tritici [1] = experiment: Glasshouse trial on wheat, curative (K4) application (Example 2); assay type: in vivo; conditions: for % Efficacy: wheat, R12 isolates, G143A, 4 weeks after application
Protocol: (§1) The trials were conducted under glasshouse conditions. Wheat was planted and grown under standard conditions with adequate supply of water and nutrients. At BBCH 11, an application of the test compounds was made. Fungicides were applied curatively 4 days after inoculation (K4) with different rates. The Septoria isolates used for inoculation were classified "R12" according their cyp51 haplotype (less sensitive to triazoles due to V136A, 1381V, Y461S/H and S524T mutation in cyp51 gene) and resistant to strobilurins due to G143A mutation in cytochrome b gene.
(§2) Disease levels were assessed by evaluating the average percentage of diseased leaf area 4 weeks after application.
(§3) The disease levels were converted into efficacies. An efficacy of 0 means that the level of the treated plants corresponds to that of the untreated control plants; an efficacy of 100 means that the treated plants had no disease at all.

Septoria tritici [2] = experiment: Glasshouse trial on wheat, preventive (P1) or curative (K4) application (Example 1); assay type: in vivo; conditions: Zymoseptoria tritici
Protocol: as §1, with “applied preventively (1 day before inoculation, P1) or” for “applied”, “curatively (4” for “curatively 4”, “after inoculation, K4) and” for “after inoculation (K4)”, “V136A, I381V,” for “V136A, 1381V,”
as §2, §3

[3] = Zymoseptoria tritici, 672 h, read-out: % Efficacy

In the case of `OC(Cc1ccccc1Cl)(Cn1nc[nH]c1=S)C1(Cl)CC1` (stereo not drawn) [Prothioconazole, prothioconazole], the Emax at 67 g/ha (Septoria tritici [1]; [3]) is reported as 7%, the Percent disease control efficacy at 67 g/ha (Septoria tritici [2]; 672 h, read-out: % Efficacy, 67 g a.i./ha, curative (K4), R12 isolates, G143A, 4 weeks after application) is reported as 7% and the Percent disease control efficacy at 67 g/ha (Septoria tritici [2]; 672 h, read-out: % Efficacy, 67 g a.i./ha, preventative (P1), R12 isolates, G143A, 4 weeks after application) is reported as 10%.

With `COC(=O)N(OC)c1ccccc1COc1ccn(-c2ccc(Cl)cc2)n1` [Pyraclostrobin, pyraclostrobin] the Percent disease control efficacy at 250 g/ha (Septoria tritici [2]; 672 h, read-out: % Efficacy, 250 g a.i./ha, preventative (P1), R12 isolates, G143A, 4 weeks after application) was 51% and the Percent disease control efficacy at 83 g/ha (Septoria tritici [2]; read-out: % Efficacy, 83 g a.i./ha, curative (K4, 4 days after inoculation), R12 isolates, G143A, assessed 4 weeks after application) was 10%.

In the case of `CCCC1COC(Cn2cncn2)(c2ccc(Cl)cc2Cl)O1` (stereo not drawn) [Propiconazole, propiconazole], the Emax at 33 g/ha (Septoria tritici [1]; [3]) is reported as 7%, the Emax at 125 g/ha (Septoria tritici [1]; [3]) is reported as 20% and the Percent disease control efficacy at 33 g/ha (Septoria tritici [2]; 672 h, read-out: % Efficacy, 33 g a.i./ha, curative (K4), R12 isolates, G143A, 4 weeks after application) is reported as 7%. For the same compound, the Percent disease control efficacy at 33 g/ha (Septoria tritici [2]; 672 h, read-out: % Efficacy, 33 g a.i./ha, preventative (P1), R12 isolates, G143A, 4 weeks after application) was 10% and the Percent disease control efficacy at 125 g/ha (Septoria tritici [2]; 672 h, read-out: % Efficacy, 125 g a.i./ha, preventative (P1), R12 isolates, G143A, 4 weeks after application) was 40%.

`CO/C=C(/C(=O)OC)c1ccccc1COc1cccc(C(F)(F)F)n1` [Picoxystrobin, picoxystrobin] was tested, and the “% Efficacy” value (Septoria tritici [1]; 83 g a.i./ha, curative (K4, 4 days after inoculation)) was 0% and the “% Efficacy” value (Septoria tritici [1]; 250 g a.i./ha, curative (K4)) was 7%.
